Measurements as given in PMC6934184, “Selective DNA-PKcs inhibition extends the therapeutic index of localized radiotherapy and chemotherapy” (The Journal of Clinical Investigation, 2019).

Molecular target: T1, GRK5 (Homo sapiens, UniProt P34947)
T1 construct: purchased Thermo Fisher Scientific (Life Technologies) SelectScreen
Experiment: SelectScreen Z'LYTE
Assay type: biochemical
Outline: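 NU5455 was profiled across the SelectScreen Broad panel of kinase activity and binding assays. Z'LYTE reactions such as CSF1R ran at apparent Km ATP, while the Adapta CAMK1 assay used ATP listed as 10. Values are given as percent.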

T1 sequence (P34947 whole entry): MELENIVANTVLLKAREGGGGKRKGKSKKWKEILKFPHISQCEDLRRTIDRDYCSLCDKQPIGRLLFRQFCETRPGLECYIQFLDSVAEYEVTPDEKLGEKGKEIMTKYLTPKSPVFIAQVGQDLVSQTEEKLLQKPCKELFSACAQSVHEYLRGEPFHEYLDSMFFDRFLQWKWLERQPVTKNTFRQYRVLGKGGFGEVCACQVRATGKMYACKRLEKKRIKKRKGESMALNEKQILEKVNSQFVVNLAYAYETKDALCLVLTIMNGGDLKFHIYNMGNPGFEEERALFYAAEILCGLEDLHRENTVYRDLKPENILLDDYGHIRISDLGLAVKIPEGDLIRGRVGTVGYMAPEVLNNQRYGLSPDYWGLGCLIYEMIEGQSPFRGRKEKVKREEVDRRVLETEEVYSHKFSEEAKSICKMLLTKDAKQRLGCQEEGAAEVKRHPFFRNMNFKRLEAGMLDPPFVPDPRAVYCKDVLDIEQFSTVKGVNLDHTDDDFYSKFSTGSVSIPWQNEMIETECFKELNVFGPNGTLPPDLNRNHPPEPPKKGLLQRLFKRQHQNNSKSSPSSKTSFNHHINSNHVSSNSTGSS

Q: CN(C(=O)CN1CCOCC1)c1ccc2sc3c(-c4cccc5c(=O)cc(N6CC7CCC(C6)O7)oc45)cccc3c2c1 [NU5455] was tested. Which inhibition at 1 µM did it give?
A: -3.2%
